Reference: PubChem BioAssay AID2789 (Sanford-Burnham Center for Chemical Genomics, 2010)
The source made the active and inactive calls. No rule for the calls is given here.

System: NF-kappaB luciferase reporter cells, doxorubicin-induced, luminescence
Experiment: inhibitors of doxorubicin-induced NF-kB reporter, SAR follow-up, cell-based, doxorubicin inducer, luciferase, set 2 (AID 2789)

IC50, inactive:
CCCn1c(SCC(=O)Nc2nc3c(s2)CCCC3)nc2c1c(=O)n(C)c(=O)n2C > 25 µM
Nc1nc2ccccc2n1CCOc1ccc(Cl)cc1 > 25 µM
Cn1c(=O)[nH]c(=O)c2c1nc([N+](=O)[O-])n2Cc1ccccc1 > 25 µM
COCCn1c(SCCCc2ccccc2)nc2c1c(=O)[nH]c(=O)n2C > 25 µM
C=CCn1c(SCCCc2ccccc2)nc2c1c(=O)[nH]c(=O)n2C > 25 µM
CCCCCn1c(SCCc2ccccc2)nc2c1c(=O)[nH]c(=O)n2C > 25 µM
C/C=C/Cn1c(SCCCc2ccccc2)nc2c1c(=O)[nH]c(=O)n2C > 25 µM
CCCn1c(SCCc2ccccc2)nc2c1c(=O)[nH]c(=O)n2C > 25 µM
CCCCn1c(SCC(=O)Nc2nnc(CC)s2)nc2c1c(=O)n(C)c(=O)n2C > 25 µM
C/C=C/Cn1c(SCc2ccccc2)nc2c1c(=O)[nH]c(=O)n2C > 25 µM
C/C=C/Cn1c(SCc2ccc(Cl)cc2)nc2c1c(=O)[nH]c(=O)n2C > 25 µM
CC(C)n1c(SCCCc2ccccc2)nc2c1c(=O)[nH]c(=O)n2C > 25 µM
C/C(Cl)=C\Cn1c(NCCc2ccccc2)nc2c1c(=O)n(C)c(=O)n2C > 25 µM
CC(C)Sc1nc2c(c(=O)[nH]c(=O)n2C)n1Cc1ccccc1 > 25 µM
CCCCn1c(SCC(=O)c2ccccc2)nc2c1c(=O)[nH]c(=O)n2C > 25 µM
